{"source": "patent US20170119806A1", "about": "“[…] LACTONE DERIVATIVES AND METHODS OF MAKING AND USING THEREOF” (OHIO STATE INNOVATION FOUNDATION, priority 2014, published 2017)", "key": {"[1]": {"test_system": "C3-3P NF-κB p65 binding site of the IFNG promoter", "assay": "EMSA and ChIP of p65 binding to the IFNG promoter", "format": "cell-based, human", "conditions": "10 μM PL-C with IL-12 (10 ng/mL), 12 h, ChIP", "experimental": "(A) Schematic of IFNG promoter potential binding sites for p65 (45). (B) NK cells purified from healthy donors were treated with 10 μM PL-C or DMSO vehicle control in the presence of IL-12 (10 ng/mL) for 12 h. Cell pellets were harvested for nuclear extraction, followed by EMSA with a ^32P-labeled oligonucleotide containing the C3-3P NF-κB p65 binding site of the IFNG promoter. Data shown represent one of three donors with similar results. (C) Cells were treated as described in (B), and the cell pellets were harvested to extract protein for ChIP assay of p65 binding to the IFNG promoter locus C3-3P. Mean of relative association of p65 at the IFNG promoter locus C3-3P from three independent experiments is shown. *p<0.05, compared with cells treated with IL-12 alone. Error bars represent S.D.\nEMSA. Nuclear extracts were isolated using a nuclear extract kit, according to the manufacturer's instruction (Active Motif, Carlsbad, Calif.). EMSA was performed as described previously (Bachmeyer C et al. Nucleic Acids Res, 1999, 27, 643-648). […]\nChromatin immunoprecipitation. […] DNA precipitated by the anti-p65 or the normal IgG Abs was quantified by real-time PCR, and values were normalized to input DNA."}, "[2]": {"target": "topo IIα (Homo sapiens, UniProt P11388)", "sequence (P11388 whole entry)": "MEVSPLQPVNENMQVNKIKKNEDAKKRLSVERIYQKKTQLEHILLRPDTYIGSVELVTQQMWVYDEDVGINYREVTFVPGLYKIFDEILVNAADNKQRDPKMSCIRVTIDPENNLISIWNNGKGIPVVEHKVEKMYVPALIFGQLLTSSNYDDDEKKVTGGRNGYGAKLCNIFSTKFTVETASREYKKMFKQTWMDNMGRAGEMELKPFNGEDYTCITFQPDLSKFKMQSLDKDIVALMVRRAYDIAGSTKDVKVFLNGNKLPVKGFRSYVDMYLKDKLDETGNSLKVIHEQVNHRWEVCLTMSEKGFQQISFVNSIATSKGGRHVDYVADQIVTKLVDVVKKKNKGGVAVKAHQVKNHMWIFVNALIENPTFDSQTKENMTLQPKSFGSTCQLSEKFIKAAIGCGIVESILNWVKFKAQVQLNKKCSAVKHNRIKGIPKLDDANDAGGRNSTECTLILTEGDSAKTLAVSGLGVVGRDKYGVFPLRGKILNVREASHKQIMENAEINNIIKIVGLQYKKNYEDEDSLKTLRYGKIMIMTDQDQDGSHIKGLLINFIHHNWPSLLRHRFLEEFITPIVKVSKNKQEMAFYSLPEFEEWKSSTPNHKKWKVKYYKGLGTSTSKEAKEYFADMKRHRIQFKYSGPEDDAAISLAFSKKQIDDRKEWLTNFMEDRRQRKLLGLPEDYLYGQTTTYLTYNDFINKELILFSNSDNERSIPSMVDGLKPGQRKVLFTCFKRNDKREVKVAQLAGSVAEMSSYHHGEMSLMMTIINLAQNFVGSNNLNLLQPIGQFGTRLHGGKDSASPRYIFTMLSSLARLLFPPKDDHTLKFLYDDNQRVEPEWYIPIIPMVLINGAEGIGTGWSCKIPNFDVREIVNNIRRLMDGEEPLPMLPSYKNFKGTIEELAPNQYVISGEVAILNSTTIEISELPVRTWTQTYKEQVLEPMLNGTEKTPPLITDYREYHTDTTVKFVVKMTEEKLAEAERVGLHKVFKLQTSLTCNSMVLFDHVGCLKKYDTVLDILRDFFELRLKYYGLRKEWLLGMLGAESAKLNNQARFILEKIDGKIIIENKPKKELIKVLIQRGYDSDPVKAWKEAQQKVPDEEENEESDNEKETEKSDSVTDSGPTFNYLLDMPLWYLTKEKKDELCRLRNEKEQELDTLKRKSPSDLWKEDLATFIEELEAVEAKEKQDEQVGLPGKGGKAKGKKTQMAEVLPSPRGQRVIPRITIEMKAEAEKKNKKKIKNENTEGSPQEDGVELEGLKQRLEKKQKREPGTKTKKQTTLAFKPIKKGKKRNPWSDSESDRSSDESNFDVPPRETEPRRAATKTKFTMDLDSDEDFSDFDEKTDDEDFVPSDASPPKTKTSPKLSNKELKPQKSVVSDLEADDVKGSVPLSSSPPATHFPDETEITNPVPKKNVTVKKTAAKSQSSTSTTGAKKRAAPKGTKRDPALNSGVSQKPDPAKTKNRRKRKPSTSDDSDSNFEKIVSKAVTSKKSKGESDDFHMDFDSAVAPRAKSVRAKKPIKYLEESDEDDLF", "assay": "Topoisomerase II assay (DNA cleavage/relaxation)", "format": "biochemical", "conditions": "100 μM test compound", "from_the_text": "The formation of linear DNA was detected by separating the SDS-treated reaction products using ethidium bromide gel electrophoresis and quantified by accounting for the relationship between fluorescence and relative band intensity for open circular (OC), linear (LNR), supercoiled (SC), and relaxed (RLX) configurations of DNA.\nTopoisomerase II Assay. […] The formation of linear DNA was detected by separating the SDS-treated reaction products using ethidium bromide gel electrophoresis by a modification of a previously described procedure (Hasinoff B B et al. Mol. Pharmacol. 2005, 67, 937-947). In this system, topo II-mediated catalytic conversion of supercoiled pBR322 DNA to the “relaxed” form of plasmic' DNA can also be observed. A 20 μL cleavage assay reaction mixture contained 250 ng topo IIα protein, 160 ng pBR322 plasmid DNA (NEB, Ipswich, Mass.), 1.0 mM ATP in assay buffer (10 mM Tris-HCl (pH 7.5), 50 mM KCl, 50 mM NaCl, 0.1 mM EDTA, 5 mM MgCl2, 2.5% glycerol), and 100 μM of test compounds or DMSO solvent, as indicated. Assay buffer (17 μL) and test compound/DMSO (1 μL) were mixed and allowed to sit at room temperature for 30 min after which 2 μL of topo IIα was added to initiate the reaction. Tubes were incubated at 37° C. for 15 min, and then quenched with 1% (v/v) SDS/10 mM disodium EDTA/200 mM NaCl. The mixture was treated subsequently with 0.77 mg/mL proteinase K (Sigma) at 55° C. for 60 min to digest the protein, and DNA bands were separated by electrophoresis (18 h at 2 V/cm) on an agarose gel (1.3% w/v) containing 0.7 μg/mL ethidium bromide in TAE buffer pH 8.0 (40 mM Tris base, 0.114% (v/v) glacial acetic acid, 2 mM EDTA). The DNA in the gel was imaged by its fluorescence on a Chemi-Doc XRS+ imager (Bio-Rad, Hercules, Calif.). Linear DNA was quantified by accounting for the relationship between fluorescence and relative band intensity for open circular (QC), linear (LNR), supercoiled (SC), and RLX (relaxed) configurations of DNA (Projan S J et al. Plasmid 1983, 9, 182-190), then calculating % of LNR from the total DNA content in each lane."}}, "note": "Entries after “also recorded” stand apart in the source; their conditions may differ."}
{"smiles": "COc1cc2c(OC3OCC(O)C(O)C3O)c3c(c(-c4ccc5c(c4)OCO5)c2cc1OC)C(=O)OC3", "note": "(centres unmarked) [Compound 4, Phyllanthusmin C]", "values": [{"measurement": "p65 binding to the C3-3P site of the IFNG promoter", "setting": "[1]", "result": "enhanced p65 binding to the C3-3P binding site"}, {"measurement": "topo IIα inhibition (in words)", "setting": "[2]", "result": "not topo Ha inhibitors; also recorded: not topo IIα inhibitors"}]}
